Converted amounts (≈) assume the structure as drawn. “And” between values parts separate entries of the source, which are not always exact repeats. Equal entries are not always repeated. Blank lines part the entries; values can stand above or below the molecule they belong to.
Columns and labels:
Test in all cases: ≥ marks a high value that may be exact or a test limit, other limits are often not marked, values filed in µg/mL are converted to µM
[1] = tested on: Staphylococcus aureus ATCC 6538
[2] = tested on: Escherichia coli ATCC 25404
Escherichia coli O157 = tested on: Escherichia coli O157
Listeria monocytogenes = tested on: Listeria monocytogenes
[3] = tested on: Micrococcus luteus ATCC 10420
[4] = tested on: Staphylococcus aureus ATCC 29213
[5] = tested on: Micrococcus luteus ATCC 4698
[6] = tested on: Salmonella enterica subsp. enterica serovar Typhimurium ATCC 14028
[7] = tested on: Staphylococcus epidermidis ATCC 9709
[8] = tested on: Klebsiella pneumoniae ATCC 10031
Salmonella typhimurium = tested on: Salmonella typhimurium
[9] = tested on: Staphylococcus epidermidis ATCC 12228
[10] = tested on: Staphylococcus aureus ATCC 43300
[11] = tested on: Escherichia coli DH5alpha
[12] = tested on: Staphylococcus aureus ATCC 25923
[13] = tested on: Staphylococcus epidermidis KCTC 1917
[14] = tested on: Candida albicans ATCC 10231
[15] = tested on: Escherichia coli ATCC 25922
[16] = tested on: Enterococcus faecalis ATCC 29212
[17] = tested on: Pseudomonas aeruginosa ATCC 15422
[18] = tested on: Legionella pneumophila Lens
[19] = tested on: Candida krusei CGMCC 2.1857
[20] = tested on: Candida parapsilosis CGMCC 2.3989
[21] = tested on: Candida tropicalis CGMCC 2.1975
Escherichia coli 1005 = tested on: Escherichia coli 1005
[22] = tested on: Salmonella enterica subsp. enterica serovar Pullorum ATCC 7913
Candida albicans = tested on: Candida albicans
[23] = tested on: Pseudomonas aeruginosa K799
[24] = tested on: Staphylococcus epidermidis C621
Escherichia coli UB1005 = tested on: Escherichia coli UB1005
[25] = tested on: Streptococcus pneumoniae ATCC 49619
Corynebacterium xerosis = tested on: Corynebacterium xerosis
[26] = tested on: Salmonella enterica subsp. enterica serovar Typhimurium ATCC 14028s
[27] = tested on: Streptococcus pyogenes ATCC 19615
Streptococcus mitis = tested on: Streptococcus mitis

MIC [1]: 3.52 µM (≈ 5 µg/mL)
MIC [2]: ≥ 64 µM
MIC (Escherichia coli O157): ≥ 64 µM
MIC (Listeria monocytogenes): 2 µM (≈ 2.84 µg/mL)
MIC [3]: 2 µM (≈ 2.84 µg/mL)
MIC [4]: 4 µM and > 2 µM
MIC [5]: 2.11 µM (≈ 3 µg/mL)
MIC [6]: > 70.4 µM
MIC [7]: 4 µM (≈ 5.68 µg/mL)
MIC [8]: 17.6 µM (≈ 25 µg/mL)
MIC (Salmonella typhimurium): ≥ 64 µM
MIC [9]: 6.33 µM (≈ 9 µg/mL)
MIC [10]: 4 µM (≈ 5.68 µg/mL)
MIC [11]: ≥ 98.5 µM
SMILES: CC(C)C[C@H](NC(=O)[C@H](CC(C)C)NC(=O)[C@H](CCCCN)NC(=O)[C@H](CO)NC(=O)[C@H](CC(C)C)NC(=O)[C@H](C)NC(=O)[C@H](CCCCN)NC(=O)[C@H](Cc1ccccc1)NC(=O)[C@H](CC(C)C)NC(=O)[C@H](C)NC(=O)CNC(=O)[C@H](CC(C)C)NC(=O)[C@@H](N)Cc1ccccc1)C(=O)O [FLGALFKALSKLL]

MIC [2]: ≥ 64 µM
MIC (Escherichia coli O157): ≥ 64 µM
MIC (Listeria monocytogenes): 8 µM (≈ 11.8 µg/mL)
MIC [3]: 4 µM (≈ 5.88 µg/mL)
MIC [12]: 4 µM (≈ 5.88 µg/mL)
MIC [7]: 4 µM (≈ 5.88 µg/mL)
MIC (Salmonella typhimurium): ≥ 64 µM
SMILES: CC(C)C[C@H](NC(=O)[C@H](CC(C)C)NC(=O)[C@H](Cc1cnc[nH]1)NC(=O)[C@H](CO)NC(=O)[C@H](CC(C)C)NC(=O)[C@H](C)NC(=O)[C@H](CCCCN)NC(=O)[C@H](Cc1c[nH]c2ccccc12)NC(=O)[C@H](CC(C)C)NC(=O)[C@H](C)NC(=O)CNC(=O)[C@H](CC(C)C)NC(=O)[C@@H](N)Cc1ccccc1)C(=O)O [FLGALWKALSHLL]

MIC [13]: ≥ 250 µM
MIC [14]: > 500 µM
MIC [15]: > 500 µM
MIC [16]: 252 µM and 205 µM and 184 µM
MIC [17]: ≥ 500 µM
SMILES: CC(C)C[C@H](NC(=O)CNC(=O)[C@H](Cc1ccc(O)cc1)NC(=O)[C@H](Cc1cnc[nH]1)NC(=O)[C@@H]1CCCN1C(=O)[C@H](CC(C)C)NC(=O)[C@H](CCC(=O)O)NC(=O)[C@H](Cc1ccccc1)NC(=O)[C@H](C)NC(=O)[C@H](CO)NC(=O)[C@@H](N)CCCCN)C(=O)O [KSAFELPHYGL]

MIC [18]: 1.23 µM (≈ 3.11 µg/mL)
SMILES: CC[C@H](C)[C@H](NC(=O)[C@H](Cc1ccccc1)NC(=O)[C@H](CC(=O)O)NC(=O)[C@@H](NC(=O)[C@H](C)NC(=O)[C@H](CCCCN)NC(=O)[C@H](CCCCN)NC(=O)[C@@H](NC(=O)[C@H](CC(C)C)NC(=O)[C@H](CC(=O)O)NC(=O)[C@@H](NC(=O)[C@@H](NC(=O)[C@H](Cc1ccccc1)NC(=O)[C@H](CCC(N)=O)NC(=O)[C@@H](N)CCSC)[C@@H](C)CC)[C@@H](C)O)[C@@H](C)CC)C(C)C)C(=O)N[C@@H](CCCCN)C(=O)NCC(=O)N[C@@H](CC(C)C)C(=O)N[C@@H](Cc1ccccc1)C(=O)NCC(=O)N[C@@H](CC(N)=O)C(=O)N[C@@H](CCCCN)C(=O)O [MQFITDLIKKAVDFIKGLFGNK]

More lines, now with the values behind:

SMILES: CC[C@H](C)[C@H](NC(=O)[C@H](CC(C)C)NC(=O)CNC(=O)[C@H](CCCCN)NC(=O)[C@@H](NC(=O)[C@@H](NC(=O)[C@H](CCC(=O)O)NC(=O)[C@@H](NC(=O)[C@H](Cc1ccccc1)NC(=O)[C@H](CCCCN)NC(=O)[C@H](C)NC(=O)[C@@H](NC(=O)[C@@H](NC(=O)[C@H](CC(=O)O)NC(=O)[C@H](C)NC(=O)[C@@H](N)CCSC)C(C)C)[C@@H](C)CC)C(C)C)[C@@H](C)CC)C(C)C)C(=O)N[C@@H](CC(=O)O)C(=O)N[C@@H](CCC(N)=O)C(=O)N[C@@H](Cc1ccccc1)C(=O)N[C@H](C(=O)N[C@@H](CCC(N)=O)C(=O)N[C@@H](CCCCN)C(=O)O)[C@@H](C)O [MADVIAKFVEIVKGLIDQFTQK]
MIC [18]: 5.01 µM (≈ 12.5 µg/mL)

SMILES: CC[C@H](C)[C@H](NC(=O)[C@H](CCCN=C(N)N)NC(=O)[C@H](CCCN=C(N)N)NC(=O)[C@@H](NC(=O)[C@@H](NC(=O)[C@@H](N)CCCN=C(N)N)[C@@H](C)CC)[C@@H](C)CC)C(=O)N[C@@H](CCCN=C(N)N)C(=O)N[C@@H](CCCN=C(N)N)C(=O)N[C@H](C(=O)N[C@H](C(=O)N[C@@H](CCCN=C(N)N)C(N)=O)[C@@H](C)CC)[C@@H](C)CC [RIIRRIRRIIR]
MIC [19]: 4 µM (≈ 6.08 µg/mL)
MIC [20]: ≥ 64 µM
MIC [21]: 1 µM (≈ 1.52 µg/mL)
MIC (Escherichia coli 1005): 8 µM (≈ 12.2 µg/mL)
MIC [4]: 64 µM (≈ 97.3 µg/mL)
MIC [6]: 16 µM (≈ 24.3 µg/mL)
MIC [22]: 16 µM (≈ 24.3 µg/mL)
MIC [12]: 32 µM (≈ 48.6 µg/mL)
MIC (Candida albicans): 8 µM (≈ 12.2 µg/mL)
MIC [15]: 16 µM and 32 µM
MIC [9]: 16 µM (≈ 24.3 µg/mL)
MIC [10]: 16 µM (≈ 24.3 µg/mL)

SMILES: CC[C@H](C)[C@H](NC(=O)[C@@H](NC(=O)[C@@H](NC(=O)[C@@H](NC(=O)[C@@H]1CCCN1C(=O)[C@H](CS)NC(=O)[C@H](CCCN=C(N)N)NC(=O)[C@H](CCCN=C(N)N)NC(=O)[C@@H](N)CCCN=C(N)N)[C@@H](C)CC)C(C)C)C(C)C)C(=O)N[C@@H](CCCN=C(N)N)C(=O)N[C@H](C(=O)N[C@@H](CS)C(=O)N[C@@H](CCCN=C(N)N)C(=O)N[C@@H](CCCN=C(N)N)C(=O)O)C(C)C [RRRCPIVVIRVCRR]
MIC (Listeria monocytogenes): 1.12 µM (≈ 2 µg/mL)
MIC [23]: ≥ 35.9 µM
MIC [24]: 8.98 µM (≈ 16 µg/mL)
MIC (Escherichia coli UB1005): 4.49 µM (≈ 8 µg/mL)
MIC [25]: ≥ 35.9 µM
MIC (Corynebacterium xerosis): 0.281 µM (≈ 0.5 µg/mL)
MIC [12]: > 35.9 µM
MIC [26]: ≥ 35.9 µM
MIC [16]: 35.9 µM (≈ 64 µg/mL)
MIC [27]: 8.98 µM (≈ 16 µg/mL)
MIC (Streptococcus mitis): 0.281 µM (≈ 0.5 µg/mL)

SMILES: CC[C@H](C)[C@H](NC(=O)[C@@H](NC(=O)[C@@H](NC(=O)[C@@H]1CCCN1C(=O)[C@H](CS)NC(=O)[C@H](CC(C)C)NC(=O)[C@H](CCCN=C(N)N)NC(=O)[C@H](CCCN=C(N)N)NC(=O)[C@@H](N)CCCN=C(N)N)[C@@H](C)CC)C(C)C)C(=O)N[C@@H](CCCN=C(N)N)C(=O)N[C@H](C(=O)N[C@@H](CS)C(=O)N[C@@H](CCCN=C(N)N)C(=O)N[C@@H](CCCN=C(N)N)C(=O)O)C(C)C [RRRLCPIVIRVCRR]
MIC (Listeria monocytogenes): 0.557 µM (≈ 1 µg/mL)
MIC [23]: 17.8 µM (≈ 32 µg/mL)
MIC [24]: 4.45 µM (≈ 8 µg/mL)
MIC (Escherichia coli UB1005): 2.23 µM (≈ 4 µg/mL)
MIC [25]: ≥ 35.6 µM
MIC (Corynebacterium xerosis): 0.278 µM (≈ 0.5 µg/mL)
MIC [12]: > 35.6 µM
MIC [26]: 17.8 µM (≈ 32 µg/mL)
MIC [16]: 17.8 µM (≈ 32 µg/mL)
MIC [27]: 4.45 µM (≈ 8 µg/mL)
MIC (Streptococcus mitis): 0.557 µM (≈ 1 µg/mL)

Reference: DBAASP
